Data from ChEMBL document CHEMBL4118146, “Design, synthesis and evaluation of substituted piperidine based KCNQ openers as novel antiepileptic agents” (Bioorg Med Chem Lett, 2018).
pEC50: −log10 of the molar value.

Experiments:
[1] = target: T1, Potassium voltage-gated channel subfamily KQT member 2 (Homo sapiens, UniProt O43526); assay: Activation of KCNQ2 (unknown origin) expressed in CHO cells at 10 uM incubated for 20 mins in dark measured every 2 secs for 10 secs by fluorescence-based thallium influx assay relative to control; assay type: cell-based
T1 sequence (O43526 whole entry): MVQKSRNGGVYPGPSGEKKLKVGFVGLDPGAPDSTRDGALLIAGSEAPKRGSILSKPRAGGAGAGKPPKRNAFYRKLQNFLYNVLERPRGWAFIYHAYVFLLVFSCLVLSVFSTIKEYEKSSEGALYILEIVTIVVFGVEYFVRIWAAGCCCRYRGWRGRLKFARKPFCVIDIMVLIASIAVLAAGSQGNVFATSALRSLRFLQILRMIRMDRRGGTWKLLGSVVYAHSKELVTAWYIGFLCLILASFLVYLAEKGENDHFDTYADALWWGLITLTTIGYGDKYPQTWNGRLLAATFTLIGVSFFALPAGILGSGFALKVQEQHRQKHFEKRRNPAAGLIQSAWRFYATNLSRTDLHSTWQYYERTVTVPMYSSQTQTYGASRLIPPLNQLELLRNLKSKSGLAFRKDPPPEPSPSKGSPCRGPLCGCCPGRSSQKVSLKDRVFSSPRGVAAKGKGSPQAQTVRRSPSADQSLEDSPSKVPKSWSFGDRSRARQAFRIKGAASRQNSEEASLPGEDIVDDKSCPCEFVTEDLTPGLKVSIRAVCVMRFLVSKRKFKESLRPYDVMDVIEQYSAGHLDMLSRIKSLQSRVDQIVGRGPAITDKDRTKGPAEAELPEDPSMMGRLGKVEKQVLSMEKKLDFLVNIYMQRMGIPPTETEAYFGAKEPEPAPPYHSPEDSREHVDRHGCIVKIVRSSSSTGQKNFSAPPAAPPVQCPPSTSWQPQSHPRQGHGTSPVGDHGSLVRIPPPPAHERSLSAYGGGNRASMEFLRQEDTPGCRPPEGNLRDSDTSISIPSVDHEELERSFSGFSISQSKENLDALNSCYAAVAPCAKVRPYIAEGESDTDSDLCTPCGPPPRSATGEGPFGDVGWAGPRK

[2] = target: T1, Potassium voltage-gated channel subfamily KQT member 2; assay: Activation of KCNQ2 (unknown origin) expressed in CHO cells at 10 uM after 10 mins by atomic absorption spectrophotometry-based Rb+ flow assay; assay type: cell-based
[3] = target: T1, Potassium voltage-gated channel subfamily KQT member 2; assay: Activation of KCNQ2 (unknown origin) expressed in CHO cells assessed as conductivity (I/I0) at 10 uM by electrophysiological patch-clamp test; assay type: cell-based
[4] = target: T1, Potassium voltage-gated channel subfamily KQT member 2; assay: Activation of KCNQ2 (unknown origin) expressed in CHO cells at 10 uM incubated for 20 mins in dark measured every 2 secs for 10 secs by fluorescence-based thallium influx assay relative to retigabine; assay type: cell-based
[5] = target: T1, Potassium voltage-gated channel subfamily KQT member 2; assay: Activation of KCNQ2 (unknown origin) expressed in CHO cells assessed as half-maximum activation voltage left shift at 10 uM by electrophysiological patch-clamp test; assay type: cell-based
[6] = Tmax in Sprague-Dawley rat at 1 mg/kg, iv measured over 24 hrs by LC/MS/MS method; assay type: ADME, organism-based; settings: in vivo
[7] = MRTlast in Sprague-Dawley rat at 1 mg/kg, iv measured over 24 hrs by LC/MS/MS method; assay type: ADME, organism-based; settings: in vivo
[8] = AUClast in Sprague-Dawley rat at 1 mg/kg, iv measured over 24 hrs by LC/MS/MS method; assay type: ADME, organism-based; parameters: dose 1 mg/kg, time 0 - last, route intravenous; settings: in vivo
[9] = Half life in Sprague-Dawley rat at 1 mg/kg, iv measured over 24 hrs by LC/MS/MS method; assay type: ADME, organism-based; settings: in vivo
[10] = Cmax in Sprague-Dawley rat at 1 mg/kg, iv measured over 24 hrs by LC/MS/MS method; assay type: ADME, organism-based; parameters: dose 1 mg/kg, route intravenous; settings: in vivo
[11] = Clearance in Sprague-Dawley rat at 1 mg/kg, iv measured over 24 hrs by LC/MS/MS method; assay type: ADME, organism-based; settings: in vivo
[12] = Apparent volume of distribution in Sprague-Dawley rat at 1 mg/kg, iv measured over 24 hrs by LC/MS/MS method; assay type: ADME, organism-based; settings: in vivo, read-out: Vd(app)

For `Cc1cc(CN2CCCc3ccccc32)cc(C)c1NC(=O)CC(C)(C)C`, the Activity [1] was 139%, the pEC50 [2] was 6.48 and the Efficacy [2] was 160%. It also gave a Ratio [3] of 2.76, a fold change (FC) [4] of 3.5 and an Activity [5] of 13.3 mV.

`Cc1cc(N2CCCCC2)cc(C)c1NC(=O)CC(C)(C)C` gave an Activity [1] of 69.8%.

Work on `Cc1cc(N2CCC(N3CCOCC3)CC2)cc(C)c1NC(=O)CC(C)(C)C` yielded an Activity [1] of 1.13%.

In the case of `Cc1cc(N2CCC(c3ccncc3)CC2)cc(C)c1NC(=O)CC(C)(C)C`, the Activity [1] was 29.7%.

With `Cc1cc(N2CCC(c3cccc(Cl)c3)CC2)cc(C)c1NC(=O)CC(C)(C)C` the Activity [1] was 168% and the fold change (FC) [4] was 3.7 to 42.

For `Cc1cc(CN2CCCCC2)cc(C)c1NC(=O)CC(C)(C)C`, the Activity [1] was 10.3%.

`Cc1cc(N2CCN(c3ccc(C(F)(F)F)cc3)CC2)cc(C)c1NC(=O)CC(C)(C)C` showed an Activity [1] of 88.3%.

For `Cc1cc(N2CCC(=O)CC2)cc(C)c1NC(=O)CC(C)(C)C`, the Activity [1] was 110%, the pEC50 [2] was 6.89 and the Efficacy [2] was 148%.

`Cc1cc(N2CCC(c3ccccc3C(F)(F)F)CC2)cc(C)c1NC(=O)CC(C)(C)C` showed an Activity [1] of -47.2%.

Molecule `Cc1cc(N2CCC(c3cccnc3)CC2)cc(C)c1NC(=O)CC(C)(C)C` has an Activity [1] of 42.6%.

Work on `Cc1cc(CN2CCc3ccccc3C2)cc(C)c1NC(=O)CC(C)(C)C` yielded an Activity [1] of 5.11%.

With `Cc1cc(C2CCCCN2)cc(C)c1NC(=O)CC(C)(C)C` (stereo not given) the Activity [1] was 0.83%.

`Cc1cc(N2CCC(c3ccc(C(F)(F)F)cc3)CC2)cc(C)c1NC(=O)CC(C)(C)C` showed an Activity [1] of 41.2%.

With `CCOC(=O)Nc1ccc(NCc2ccc(F)cc2)cc1N` [EZOGABINE] the Activity [1] was 40.2%, the pEC50 [2] was 6.46 and the Efficacy [2] was 210%. For the same molecule, the Ratio [3] was 2.12 and the Activity [5] was 40 mV.

For `Cc1cc(N2CCC(c3cccc(C(F)(F)F)c3)CC2)cc(C)c1NC(=O)CC(C)(C)C`, the Activity [1] was 149% and the fold change (FC) [4] was 3.7 to 42.

With `Cc1cc(N2CCC(C)(C)CC2)cc(C)c1NC(=O)CC(C)(C)C` the Activity [1] was 100%, the pEC50 [2] was 5.80 and the Efficacy [2] was 210%. The Ratio [3] was 1.53 and the Activity [5] was 25 mV.

For `Cc1cc(N2CCN(c3ccccn3)CC2)cc(C)c1NC(=O)CC(C)(C)C`, the Activity [1] was 0.28%.

`Cc1cc(N2CCC(c3ccccc3F)CC2)cc(C)c1NC(=O)CC(C)(C)C` gave an Activity [1] of 44%.

`Cc1cc(N2CCN(c3cccc(C(F)(F)F)c3)CC2)cc(C)c1NC(=O)CC(C)(C)C` gave an Activity [1] of 52.1%.

`Cc1cc(N2CCC(c3ccc(Cl)cc3)CC2)cc(C)c1NC(=O)CC(C)(C)C` gave an Activity [1] of 88.3%.

Molecule `Cc1cc(N2CCC(c3cccc(F)c3)CC2)cc(C)c1NC(=O)CC(C)(C)C` has an Activity [1] of 152%, a pEC50 [2] of 6.66 and an Efficacy [2] of 180%. For the same molecule, the Tmax [6] was 1.8 min, the fold change (FC) [4] was 3.7 to 42 and the MRT last at 24 h [7] was 2.61 h. For the same molecule, the AUC(0-t) at 24 h [8] was 8.36 µg·h/mL, the half-life [9] was 1.38 h and the Cmax [10] was 9.11 µg/mL. The clearance [11] was 0.12 L/h/kg and the Vd [12] was 0.24 L/kg.

`Cc1cc(N2CCC(N3CCCCC3)CC2)cc(C)c1NC(=O)CC(C)(C)C` gave an Activity [1] of 0.02%.

`Cc1cc(N2CCC(c3ccccc3)CC2)cc(C)c1NC(=O)CC(C)(C)C` gave an Activity [1] of 0.63%.
